One data set deals with T1, Rv2498c (Mycobacterium tuberculosis, UniProt P9WPE1).
T1 construct: gene citE

Data set [1] has as its system CC(=O)SCCNC(=O)CCNC(=O)[C@H](O)C(C)(C)COP(=O)(O)OP(=O)(O)OC[C@H]1O[C@@H](n2cnc3c(N)ncnc32)[C@H](O)[C@@H]1OP(=O)(O)O. Put plainly: purified protein.

Results on three compounds are retold here after article PMC6689899, “An essential bifunctional enzyme in Mycobacterium tuberculosis for itaconate dissimilation and leucine catabolism” (Proceedings of the National Academy of Sciences of the …, 2019).

A word on the Km: it is the concentration of substrate that gives half-maximal velocity. One may read the kcat/Km as the turnover number divided by the Michaelis constant.

T1 sequence (P9WPE1 whole entry): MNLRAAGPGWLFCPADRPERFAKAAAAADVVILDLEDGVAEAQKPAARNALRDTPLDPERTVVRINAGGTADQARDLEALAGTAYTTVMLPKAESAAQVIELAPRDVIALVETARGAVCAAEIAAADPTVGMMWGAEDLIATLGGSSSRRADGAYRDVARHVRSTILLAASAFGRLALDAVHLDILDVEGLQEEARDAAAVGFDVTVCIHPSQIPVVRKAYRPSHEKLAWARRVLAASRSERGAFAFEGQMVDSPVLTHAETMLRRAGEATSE

For the compound `CC(=O)CC(=O)O` [acetoacetate], the X-ray crystal structure result at Rv2498c was “complexes with (S)-citramalyl-CoA (PDB ID code 6AQ4) and with acetoacetate:CoA (PDB ID code 6AS5)”.
With “Rv1837c (Mycobacterium tuberculosis H37Rv)”, in data set [1], the Km was 45 ± 9 µM and the kcat/Km was found to be 1.7e+06 M⁻¹ s⁻¹.
For `CC(C)(COP(=O)(O)OP(=O)(O)OC[C@H]1O[C@@H](n2cnc3c(N)ncnc32)[C@H](O)[C@@H]1OP(=O)(O)O)[C@@H](O)C(=O)NCCC(=O)NCCS` [CoA], the X-ray crystal structure entry on Rv2498c was “complexes with (S)-citramalyl-CoA (PDB ID code 6AQ4) and with acetoacetate:CoA (PDB ID code 6AS5)”.
